We go through 22 compounds from patent publication US20210220328A1, “PYRROLE DERIVATIVES AS ACC INHIBITORS” (Almirall, S.A., priority 2017, published 2021).

Where only a bound is given, the exact number is not on record here.

The test system of assay [1] is immortalized human sebocyte cell line, SZ95. Put plainly: In vitro assay of inhibition of lipid synthesis. Type of assay: cell-based. As to conditions: 48 h, SZ95 sebocytes. A digest of the protocol:
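Human SZ95 sebocytes were preincubated with compound for 30 min, then stimulated with 75 μM arachidonic acid for 48 h at 37 °C. Neutral lipids were stained with AdipoRed and read by fluorescence (ex 485/em 535). % inhibition was normalized between AA-stimulated and unstimulated cells.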

The subject of assay [2] is sebaceous gland activity. As to conditions: Hunt D. et al. J Invest Dermatol. 2017; cited from earlier work.
The test system of assay [3] is sebocytes. As to conditions: Hunt D. et al. J Invest Dermatol. 2017; cited from earlier work.
Setting [4] is: 75 μM arachidonic acid, AdipoRed, Table 2, finer classes for compounds with IC50 less than 250 nM.
The mark [5] stands for this setting: lipid synthesis induced by 75 μM arachidonic acid, AdipoRed fluorescence, Table 1.

In general, IC50 refers to the concentration that inhibits the measured activity by half. Read a low IC50 as higher potency. Consider `CCCCCCCCCCCCCc1c[nH]c(C(=O)OC(C)OC(=O)OCCOCCOCC)c1Cl` (stereo not shown) [Example 112, 4-Oxo-3,5,8,11-tetraoxatridecan-2-yl 3-chloro-4-tridecyl-1H-pyrrole-2-carboxylate], for which the IC50 in assay [1] (setting [4]) was 0.1 to 0.25 µM; in assay [1] (setting [5]) it was below 0.25 µM.
For `CCCCCCCCCCCCc1cc(Cl)c(C(=O)OCC(F)(F)F)[nH]1` [Example 113, 2,2,2-Trifluoroethyl 3-chloro-5-dodecyl-1H-pyrrole-2-carboxylate], the IC50 in assay [1] (setting [5]) is 1 to 5 µM.
Still for that read-out and setting: with `CCCCCCCCCCCCc1cc(Cl)c(C(=O)OCCOCCOCC)[nH]1` [Example 114, 2-(2-Ethoxyethoxy)ethyl 3-chloro-5-dodecyl-1H-pyrrole-2-carboxylate] the figure was 1 to 5 µM.
`CCCCCCCCCCCCc1cc(Cl)c(C(=O)OC(C)OC(=O)OC(C)C)[nH]1` (stereo not shown) [Example 115, 1-((Isopropoxycarbonyl)oxy)ethyl 3-chloro-5-dodecyl-1H-pyrrole-2-carboxylate]: the values for the IC50 in assay [1] (setting [4]) and in assay [1] (setting [5]) were 0.1 to 0.25 µM and below 0.25 µM, respectively.
On to `CCCCCCCCCCCCc1cc(Cl)c(C(=O)OC(C)OC(=O)OCCOC)[nH]1` (stereo not shown) [Example 116, 1-(((2-Methoxyethoxy)carbonyl)oxy)ethyl 3-chloro-5-dodecyl-1H-pyrrole-2-carboxylate], for which the IC50 was 0.05 to 0.1 µM in assay [1] (setting [4]) and below 0.25 µM in assay [1] (setting [5]).
Take `CCCCCCCCCCCCc1cc(Cl)c(C(=O)OC(C)OC(=O)OCCOCCOCC)[nH]1` (stereo not shown) [Example 117, 4-Oxo-3,5,8,11-tetraoxatridecan-2-yl 3-chloro-5-dodecyl-1H-pyrrole-2-carboxylate]: the IC50 was 0.1 to 0.25 µM in assay [1] (setting [4]) and below 0.25 µM in assay [1] (setting [5]).
As to `CCCCCCCCCCCCc1cc(Cl)c(C(=O)OCC(O)CO)[nH]1` (stereo not shown) [Example 118, 2,3-Dihydroxypropyl 3-chloro-5-dodecyl-1H-pyrrole-2-carboxylate], the IC50 in assay [1] (setting [5]) fell in the range of 0.25 to 1 µM.
On to `CCCCCCCCCCCc1cc(F)c(C(=O)O)[nH]1` [Example 119, 3-Fluoro-5-undecyl-1H-pyrrole-2-carboxylic acid], for which the IC50 in assay [1] (setting [4]) is 0.05 to 0.1 µM; in assay [1] (setting [5]), below 0.25 µM.
The matching figures for `CCCCCCCCCCCCCc1cc(F)c(C(=O)O)[nH]1` [Example 120, 3-Fluoro-5-tridecyl-1H-pyrrole-2-carboxylic acid]: below 0.05 µM and below 0.25 µM.
In the same order, the values of `CCCCCCCCCCCCCCc1cc(F)c(C(=O)O)[nH]1` [Example 121, 3-Fluoro-5-tetradecyl-1H-pyrrole-2-carboxylic acid] are below 0.05 µM and below 0.25 µM.
The matching figures for `CCCCCCCCCCCCCCCc1cc(F)c(C(=O)O)[nH]1` [Example 122, 3-Fluoro-5-pentadecyl-1H-pyrrole-2-carboxylic acid]: 0.05 to 0.1 µM and below 0.25 µM.
As for `CCCCCCCCCCCCCCCCc1cc(F)c(C(=O)O)[nH]1` [Example 123, 3-Fluoro-5-hexadecyl-1H-pyrrole-2-carboxylic acid], the IC50 is 0.05 to 0.1 µM in assay [1] (setting [4]) and below 0.25 µM in assay [1] (setting [5]).
In the case of `CCCCCCCCCCCCCCCCCc1cc(F)c(C(=O)O)[nH]1` [Example 124, 3-Fluoro-5-heptadecyl-1H-pyrrole-2-carboxylic acid], the IC50 in assay [1] (setting [5]) was below 0.25 µM.
As for `CCCCCCCCCCCCCCCCCCc1cc(F)c(C(=O)O)[nH]1` [Example 125, 3-Fluoro-5-octadecyl-1H-pyrrole-2-carboxylic acid], the IC50 in assay [1] (setting [5]) is below 0.25 µM.
Same read-out and setting: with `CCCCCCCCCCCCCCCCCCCc1cc(F)c(C(=O)O)[nH]1` [Example 126, 3-Fluoro-5-nonadecyl-1H-pyrrole-2-carboxylic acid] the figure was below 0.25 µM.
In the case of `CCCCCCCCCCC(C)(C)Cc1cc(Cl)c(C(=O)O)[nH]1` [Example 127, 3-Chloro-5-(2,2-dimethyldodecyl)-1H-pyrrole-2-carboxylic acid], the values for the IC50 in assay [1] (setting [4]) and in assay [1] (setting [5]) were below 0.05 µM and 0.25 to 1 µM, respectively.
Turning to `CCCCCCCCCC(F)(F)CCc1cc(Cl)c(C(=O)O)[nH]1` [Example 128, 3-Chloro-5-(3,3-difluorododecyl)-1H-pyrrole-2-carboxylic acid], the IC50 is below 0.05 µM in assay [1] (setting [4]) and 0.25 to 1 µM in assay [1] (setting [5]).
In assay [1] (setting [5]), `CCCCCCCCCCCCc1cc(C#N)c(C(=O)O)[nH]1` [Example 129, 3-Cyano-5-dodecyl-1H-pyrrole-2-carboxylic acid] showed an IC50 of 1 to 5 µM.
Consider `CCCCCCCCCCCCc1cc(Cl)c(C(=O)O)n1C` [Example 130, 3-Chloro-5-dodecyl-1-methyl-1H-pyrrole-2-carboxylic acid], for which the IC50 in assay [1] (setting [4]) is 0.1 to 0.25 µM; in assay [1] (setting [5]), above 5 µM.
Take `O=C(O)c1[nH]c(CCCCCCCCCCCCCCF)cc1F` [Example 131, 3-Fluoro-5-(14-fluorotetradecyl)-1H-pyrrole-2-carboxylic acid]: the IC50 in assay [1] (setting [4]) is 0.1 to 0.25 µM; in assay [1] (setting [5]), below 0.25 µM.
As to `CCCCCCCCCCCCCCCCc1c[nH]c(C(=O)O)c1F` [Example 132, 3-Fluoro-4-hexadecyl-1H-pyrrole-2-carboxylic acid], the IC50 in assay [1] (setting [4]) was below 0.05 µM; in assay [1] (setting [5]) it was below 0.25 µM.
On to `CCCCCCCCCCCCCCOc1ccc(C(=O)OCC(=O)N(C)CC(=O)OCC)o1` [Olumacostat Glasaretil], for which the “activity in an in vivo model of sebaceous gland activity” value in assay [2] is reported as “poor activity”. Further, the “potency inhibiting sebum production by sebocytes” value in assay [3] is “low potency”.
